Experimental data published in US12404239B2, “Modulators of BCL6 as ligand directed degraders” (Celgene Corporation, priority 2022, dated 2025).

Target: T1, BCL6 (Homo sapiens, UniProt P41182)
T1 construct: HiBiT-tag knocked into endogenous BCL6 locus using CRISPR; endogenous in cells; host or cells: DHL-4_BCL6_HiBiT cells (CRISPR knock-in)
Test: BCL6_HiBiT degradation assay (2 h)
Type: cell-based
Conditions: DHL-4_BCL6_HiBiT cells
Summary of the method: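 DHL-4 cells carrying CRISPR HiBiT knock-in at endogenous BCL6, treated 2 h at 37 °C with 10-point 3-fold dilutions from 1-10 μM. BCL6 level read by Nano-Glo HiBiT lytic luminescence normalized to DMSO; four-parameter fit gives degradation EC50 and Yconstant (% remaining at maximal effect).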

| YCon (% remaining maximal effect) | SMILES |
| --- | --- |
| ^^ (20-60%) | CN1C(=O)Cc2cc(Nc3nc(N4CCC(Nc5ccc6c(C7CCC(=O)NC7=O)nn(C)c6c5)CC4)ncc3Cl)ccc21 (single isomer, unassigned) [Example 53] |

Same assay, conditions: DHL-4_BCL6_HiBiT cells, read-out: YCon (% remaining maximal effect)

| SMILES | Percent BCL6 remaining at maximal degradation (Ycon) |
| --- | --- |
| C[C@@H]1CN(c2ncc(Cl)c(Nc3ccc4c(c3F)CC(=O)N4C)n2)CC[C@H]1Nc1ccc2c(C3CCC(=O)NC3=O)nn(C)c2c1 (stereo partly drawn) [Example 98, 3-(6-(((3R,4R)-1-(5-chloro-4-((4-fluoro-1-methyl-2-oxoindolin-5-yl)amino)pyrimidin-2-yl)-3-methylpiperidin-4-yl)amino)-1-methyl-1H-indazol-3-yl)piperidine-2,6-dione] | < 20% |
| CN1C(=O)Cc2cc(Nc3nc(N4CC[C@@H](N(C)c5ccc6c(C7CCC(=O)NC7=O)nn(C)c6c5)[C@H](F)C4)ncc3Cl)ccc21 (stereo partly drawn) [Example 46, 3-[6-[[(3R,4R)-1-[5-Chloro-4-[(1-methyl-2-oxo-indolin-5-yl)amino]pyrimidin-2-yl]-3-fluoro-4-piperidyl]-methyl-amino]-1-methyl-indazol-3-yl]piperidine-2,6-dione] | > 60% |
| C[C@@H]1CN(c2ncc(C#N)c(Nc3cc(F)c4c(c3)CC(=O)N4C)n2)CC[C@H]1Nc1ccc2c(C3CCC(=O)NC3=O)nn(C)c2c1 (stereo partly drawn) [Example 116, 2-((3R,4R)-4-((3-(2,6-dioxopiperidin-3-yl)-1-methyl-1H-indazol-6-yl)amino)-3-methylpiperidin-1-yl)-4-((7-fluoro-1-methyl-2-oxoindolin-5-yl)amino)pyrimidine-5-carbonitrile] | < 20% |
| C[C@@H]1CN(c2ncc(Cl)c(Nc3ccc4c(c3)CC(=O)N4CCC(C)(C)F)n2)CC[C@H]1Nc1ccc2c(C3CCC(=O)NC3=O)nn(C)c2c1 (stereo partly drawn) [Example 107, 3-(6-(((3R,4R)-1-(5-chloro-4-((1-(3-fluoro-3-methylbutyl)-2-oxoindolin-5-yl)amino)pyrimidin-2-yl)-3-methylpiperidin-4-yl)amino)-1-methyl-1H-indazol-3-yl)piperidine-2,6-dione] | < 20% |
| C[C@@H]1CN(c2ncc(Cl)c(Nc3ccc4c(c3)CC(=O)N4C)n2)CC[C@H]1Nc1ccc2c(C3(C)CCC(=O)NC3=O)nn(C)c2c1 (stereo partly drawn) [Example 85, 3-(6-(((3R,4R)-1-(5-chloro-4-((1-methyl-2-oxoindolin-5-yl)amino)pyrimidin-2-yl)-3-methylpiperidin-4-yl)amino)-1-methyl-1H-indazol-3-yl)-3-methylpiperidine-2,6-dione] | < 20% |
| C[C@@H]1CN(c2ncc(Cl)c(Nc3cnc4c(c3)CC(=O)N4C)n2)CC[C@H]1Nc1ccc2c(C3CCC(=O)NC3=O)nn(C)c2c1 (stereo partly drawn) [Example 74, 3-(6-(((3R,4R)-1-(5-chloro-4-((1-methyl-2-oxo-2,3-dihydro-1H-pyrrolo[2,3-b]pyridin-5-yl)amino)pyrimidin-2-yl)-3-methylpiperidin-4-yl)amino)-1-methyl-1H-indazol-3-yl)piperidine-2,6-dione] | 20 to 60% |
| C[C@@H]1CN(c2ncc(Cl)c(Nc3cc4c(cc3F)N(C)C(=O)C4)n2)CC[C@H]1Nc1ccc2c([C@@H]3CCC(=O)NC3=O)nn(C)c2c1 (single isomer, unassigned) [Example 94] | < 20% |
| C[C@H]1CN(c2ncc(Cl)c(Nc3ccc4c(c3)CC(=O)N4C)n2)CC[C@H]1Nc1ccc2c(C3CCC(=O)NC3=O)nn(C)c2c1 (stereo partly drawn) [Example 13, 3-(6-(((3S,4R)-1-(5-chloro-4-((1-methyl-2-oxoindolin-5-yl)amino)pyrimidin-2-yl)-3-methylpiperidin-4-yl)amino)-1-methyl-1H-indazol-3-yl)piperidine-2,6-dione] | > 60% |
| C[C@@H]1CN(c2ncc(Cl)c(Nc3ccc4c(c3F)CC(=O)N4C)n2)CC[C@H]1Nc1ccc2c([C@H]3CCC(=O)NC3=O)nn(C)c2c1 (single isomer, unassigned) [Example 99] | < 20% |
| CN1C(=O)Cc2cc(Nc3nc(N4CCCN(c5ccc6c(C7CCC(=O)NC7=O)nn(C)c6c5)CC4)ncc3Cl)ccc21 (stereo not drawn) [Example 32, 3-(6-(4-(5-chloro-4-((1-methyl-2-oxoindolin-5-yl)amino)pyrimidin-2-yl)-1,4-diazepan-1-yl)-1-methyl-1H-indazol-3-yl)piperidine-2,6-dione] | > 60% |
| C[C@@H]1C[C@@H](Nc2ccc3c(C4CCC(=O)NC4=O)nn(C)c3c2)CCN1c1ncc(Cl)c(Nc2ccc3c(c2)CC(=O)N3C)n1 (stereo partly drawn) [Example 23, 3-(6-(((2R,4S)-1-(5-chloro-4-((1-methyl-2-oxoindolin-5-yl)amino)pyrimidin-2-yl)-2-methylpiperidin-4-yl)amino)-1-methyl-1H-indazol-3-yl)piperidine-2,6-dione] | > 60% |
| C[C@@H]1C[C@H](N(C)c2ncc(Cl)c(Nc3ccc4c(c3)CC(=O)N4C)n2)CCN1c1ccc2c(C3CCC(=O)NC3=O)nn(C)c2c1 (stereo partly drawn) [Example 4, 3-(6-((2R,4R)-4-((5-chloro-4-((1-methyl-2-oxoindolin-5-yl)amino)pyrimidin-2-yl)(methyl)amino)-2-methylpiperidin-1-yl)-1-methyl-1H-indazol-3-yl)piperidine-2,6-dione] | < 20% |
| C[C@H]1C[C@H](N(C)c2ccc3c([C@H]4CCC(=O)NC4=O)nn(C)c3c2)CCN1c1ncc(Cl)c(Nc2ccc3c(c2)CC(=O)N3C)n1 (single isomer, unassigned) [Example 87] | > 60% |
| C[C@@H]1CN(c2ncc(Cl)c(Nc3ccc4c(c3)CC(=O)N4CCN3CCOCC3)n2)CC[C@H]1Nc1ccc2c([C@@H]3CCC(=O)NC3=O)nn(C)c2c1 (single isomer, unassigned) [Example 103] | < 20% |

Other lines, results leading:

| Percent BCL6 remaining at maximal degradation (Ycon) | SMILES |
| --- | --- |
| < 20% | C[C@@H]1CN(c2ncc(Cl)c(Nc3ccc4c(c3)N(C)C(=O)C4)n2)CC[C@H]1Nc1ccc2c(C3CCC(=O)NC3=O)nn(C)c2c1 (stereo partly drawn) [Example 61, 3-(6-(((3R,4R)-1-(5-chloro-4-((1-methyl-2-oxoindolin-6-yl)amino)pyrimidin-2-yl)-3-methylpiperidin-4-yl)amino)-1-methyl-1H-indazol-3-yl)piperidine-2,6-dione] |
| > 60% | CC1CN(c2ccc3c(C4CCC(=O)NC4=O)nn(C)c3c2)C(=O)CN1c1ncc(Cl)c(Nc2ccc3c(c2)CC(=O)N3C)n1 (stereo not drawn) [Example 39, 3-(6-(4-(5-chloro-4-((1-methyl-2-oxoindolin-5-yl)amino)pyrimidin-2-yl)-5-methyl-2-oxopiperazin-1-yl)-1-methyl-1H-indazol-3-yl)piperidine-2,6-dione] |
| < 20% | C[C@@H]1CN(c2ncc(C#N)c(Nc3ccc4c(c3)CC(=O)N4C)n2)CC[C@H]1Nc1ccc2c(C3CCC(=O)NC3=O)nn(C)c2c1 (stereo partly drawn) [Example 113, 2-((3R,4R)-4-((3-(2,6-dioxopiperidin-3-yl)-1-methyl-1H-indazol-6-yl)amino)-3-methylpiperidin-1-yl)-4-((1-methyl-2-oxoindolin-5-yl)amino)pyrimidine-5-carbonitrile] |
| < 20% | C[C@@H]1CN(c2ncc(Cl)c(Nc3cnc4c(c3)CC(=O)N4C)n2)CC[C@H]1Nc1ccc2c(N3CCC(=O)NC3=O)nn(C)c2c1 [Example 143, 1-(6-(((3R,4R)-1-(5-chloro-4-((1-methyl-2-oxo-2,3-dihydro-1H-pyrrolo[2,3-b]pyridin-5-yl)amino)pyrimidin-2-yl)-3-methylpiperidin-4-yl)amino)-1-methyl-1H-indazol-3-yl)dihydropyrimidine-2,4(1H,3H)-dione] |
| > 60% | CN1C(=O)Cc2cc(Nc3nc(N(C)[C@H]4CC[C@H](Nc5ccc6c(C7CCC(=O)NC7=O)nn(C)c6c5)CC4)ncc3Cl)ccc21 (stereo partly drawn) [Example 3, 3-(6-(((trans)-4-((5-chloro-4-((1-methyl-2-oxoindolin-5-yl)amino)pyrimidin-2-yl)(methyl)amino)cyclohexyl)amino)-1-methyl-1H-indazol-3-yl)piperidine-2,6-dione] |
| 20 to 60% | CO[C@@H]1CN(c2nc(F)c(Cl)c(Nc3ccc4c(c3)CC(=O)N4C)n2)CC[C@H]1Nc1ccc2c(N3CCC(=O)NC3=O)nn(C)c2c1 [Example 158, 1-(6-(((3R,4R)-1-(5-chloro-4-fluoro-6-((1-methyl-2-oxoindolin-5-yl)amino)pyrimidin-2-yl)-3-methoxypiperidin-4-yl)amino)-1-methyl-1H-indazol-3-yl) dihydropyrimidine-2,4(1H,3H)-dione] |
| < 20% | C[C@@H]1CN(c2ncc(Cl)c(Nc3ccc4c(c3)CC(=O)N4CC(C)(C)F)n2)CC[C@H]1Nc1ccc2c(C3CCC(=O)NC3=O)nn(C)c2c1 (stereo partly drawn) [Example 121, 3-(6-(((3R,4R)-1-(5-chloro-4-((1-(2-fluoro-2-methylpropyl)-2-oxoindolin-5-yl)amino)pyrimidin-2-yl)-3-methylpiperidin-4-yl)amino)-1-methyl-1H-indazol-3-yl)piperidine-2,6-dione] |
| 20 to 60% | CN1C(=O)Cc2cc(Nc3nc(N4CC[C@H](Nc5ccc6c(C7CCC(=O)NC7=O)nn(C)c6c5)[C@@H](F)C4)ncc3Cl)ccc21 (stereo partly drawn) [Example 42, 3-(6-(((3S,4S)-1-(5-chloro-4-((1-methyl-2-oxoindolin-5-yl)amino)pyrimidin-2-yl)-3-fluoropiperidin-4-yl)amino)-1-methyl-1H-indazol-3-yl)piperidine-2,6-dione] |
| < 20% | C[C@@H]1CN(c2ncc(Cl)c(Nc3ccc4c(c3)CC(=O)N4CCCC(F)(F)F)n2)CC[C@H]1Nc1ccc2c(C3CCC(=O)NC3=O)nn(C)c2c1 (stereo partly drawn) [Example 119, 3-(6-(((3R,4R)-1-(5-chloro-4-((2-oxo-1-(4,4,4-trifluorobutyl)indolin-5-yl)amino)pyrimidin-2-yl)-3-methylpiperidin-4-yl)amino)-1-methyl-1H-indazol-3-yl)piperidine-2,6-dione] |
